Measured values from patent US5656600A, “α-ketoamide derivatives as inhibitors of thrombosis” (Corvas International, Inc., priority 1993, dated 1997).

Experiments:
thrombin = thrombin (Homo sapiens, UniProt P00734); conditions: literature values; read-out: Ki (thrombin), reported; cited from earlier work
[1] = test system: FeCl3 Model of Thrombosis in Rats; experiment: Rat model of FeCl3-induced platelet-dependent arterial thrombosis; assay type: in vivo; conditions: for Incidence of Occlusion: occluded/total animals
Source text: Kurz, K. D., Main, B. W., and Sandusky, G. E., Thromb. Res., 60:269-280 (1990). In this model a platelet-rich, occlusive thrombus is formed in a segment of the rat carotid artery treated with a fresh solution of FeCl3 absorbed to a piece of filter paper. The FeCl3 is thought to diffuse into the treated segment of artery and causes de-endothelialization resulting in thrombus formation. The effect of a test compound on the incidence of occlusive thrombus formation following the application of the FeCl3 is monitored by ultrasonic flowtometry and is used as the primary end point. The use of flowtometry is a modification of the original procedure in which thermal detection of clot formation was employed. Kurz, K. D., Main, B. W., and Sandusky, G. E., Thromb. Res., 60:269-280 (1990).
Male Harlan Sprague Sawley rats (420-450 g) were acclimated at least 72 hours prior to use and fasted for 12 hours prior to surgery with free access to water. The animals were prepared, anesthetized with Nembutal with catheters for blood pressure monitoring, drug and anesthesia delivery being implanted as described above. The left carotid artery was exposed and isolated by making a midline cervical incision followed by blunt dissection and spreading techniques to separate a 2 cm segment of the vessel from the carotid sheath. A silk suture is inserted under the proximal and distal ends of the isolated vessel to provide clearance for the placement of a ultrasonic flow probe (Transonic) around the proximal end of the vessel. The probe is then secured with a stationary arm.
The test compounds were administered as described above after placement of the flow probe and stabilization of the preparation for a period of 60 minutes prior to the thrombogenic stimulus. At t=0, a 3 mm diameter piece of filter paper (Whatman #3) soaked with 10 μL of a 35% solution of fresh FeCl3 (in water) was applied the segment of isolated carotid artery distal to the flow probe. Blood pressure, blood flow, heart rate, and respiration were monitored for 60 minutes.
The incidence of occlusion (defined as the attainment of zero blood flow) was recorded as the primary end point. Following the 60 minute observation period the flow probe was removed and the area cleared of all excess fluid. The distal and proximal sutures were tied off and arterial clamps placed on the far proximal and distal ends of the segment. The isolated segment was cut out, blotted dry on filter paper and weighed. The segment was re-weighed following removal of the clot and the difference recorded as total % clot (see above). Weights were recorded on only those segments which had detectable thrombus. Following the procedure the animals were euthanized as described above.

α-thrombin [2] = target: T1, α-thrombin (Homo sapiens, UniProt P00734); experiment: Thrombin-induced clotting of purified fibrinogen; assay type: biochemical; conditions: preincubation with α-thrombin up to 60 minutes before fibrinogen
Experimental: Inhibition is reflected as an increase in the relative clotting time which is the ratio of the […]. The control clotting time in this assay is 16.2±0.78 sec.
The clotting time of fibrinogen following the addition of the thrombin/inhibitor complex was measured optically using the Coag-A-Mate XC automated coagulometer (General Diagnostics, Organon Technica, Oklahoma City, OK). […] Haemostas., 69:130-134 (1993).

[3] = test system: pooled normal human plasma; experiment: Ex vivo coagulation assay (APTT); conditions: normal citrated human plasma; FIG. 3
Experimental: Fresh frozen pooled normal human plasma was obtained from George King Biomedical, Overland Park, KA. Measurements APTT was made using the Coag-A-Mate RA4 automated coagulometer (General Diagnostics, Organon Technica, Oklahoma City, OK) using the Automated APTT reagent (Organon Technica, Durham, NC) as the initiator of clotting according to the manufacturers instructions. The assay was conducted by making a series of dilutions of the test compounds in rapidly thawed plasma followed by adding 200 μL to the wells of the assay carousel.

α-thrombin [4] = target: T1, α-thrombin; experiment: Amidolytic thrombin assay (inhibition constant Ki); assay type: biochemical
Experimental: The ability of the compounds of the present invention to act as inhibitors of thrombin catalytic activity in comparison to Hirulog-1 (compound 25) was assessed by determining their inhibition constant, Ki.
Enzyme activity was determined using the chromogenic substrate Pefachrome t-PA (CH3 SO2 -D-hexahydrotyrosine-glycyl-L-arginine-p-nitroaniline, obtained from Pentapharm Ltd.). The substrate was reconstituted in deionized water prior to use.
Ki values were determined for test compounds using the following methodologies:
The assay was conducted by combining in appropriate wells of a Corning microtiter plate, 50 μL of HBSA, 50 μL of the test compound at a specified concentration diluted in HBSA (or HBSA alone for Vo(uninhibited velocity) measurement), and 50 μL of the chromogenic substrate diluted in HBSA. At time zero, 50 μL of α-thrombin diluted in HBSA, was added to the wells yielding a final concentration of 0.25 nM in a total volume of 200 μL. Velocities of Pefachrome-tPA substrate hydrolysis which occurred over a 40 minute time period was measured by the change in absorbance at 405 nm using a Thermo Max® Kinetic Microplate Reader. […] The linear relationship between kobs and inhibitor concentration is indicative of a competitive, one step mechanism and was used to calculate kon and koff which yielded a value for Ki after taking into consideration the concentration and Km (38.5 μM) of the substrate in the assay.
The initial velocity of Pefachrome t-PA hydrolysis was measured by the change in absorbance at 405 nm using a Thermo Max® Kinetic Microplate Reader over a 2 minute period in which less than 5% of the added substrate was utilized. The relationship between the ratio of the inhibited steady-state velocity (Vs) and the uninhibited velocity (Vo) to the concentration of inhibitor [It ], was analyzed using Equation 1 developed by Morrison , J. F., Biochim. Biophys. Acta, 185:269 (1969) for inhibitors which deplete a significant amount of the total enzyme (Et) over the course of the assay (designated tight binding inhibitors):
Vs/Vo={([Et ]-[It ]-Ki*)+[([It ]+Ki*-[Et ])^2
Ki* was determined by fitting Vs/Vo verses [I] using Equation 1 by non-linear regression analysis.
The best fit of the data for both compounds was to the equation describing competitive inhibition.

[5] = 0.1 mg/kg i.v. bolus + 40 μg/kg/min i.v. infusion

Substance: (D--Phe)--Pro--Arg--Pro--(Gly4 --Asn--Gly--Asp--Phe--Glu--Glu--IIe--Pro--Glu--Glu--Tyr--Leu--OH [Compound 25]
- Ki (thrombin): 2.56 nM
- % Clot ([1]; 0.1 mg/kg i.v. bolus + 5 μg/kg/min i.v. infusion, mean ± S.E.M., segments with detectable thrombus): 70.1 ± 5.5%
- Incidence of Occlusion ([1]; 0.1 mg/kg i.v. bolus + 5 μg/kg/min i.v. infusion): 3/3
- % Clot ([1]; 0.1 mg/kg i.v. bolus + 10 μg/kg/min i.v. infusion, mean ± S.E.M., segments with detectable thrombus): 59.42 ± 4.34%
- Incidence of Occlusion ([1]; 0.1 mg/kg i.v. bolus + 10 μg/kg/min i.v. infusion): 5/6
- % Clot ([1]; 0.1 mg/kg i.v. bolus + 20 μg/kg/min i.v. infusion, mean ± S.E.M., segments with detectable thrombus): 45.3 ± 11.63%
- Incidence of Occlusion ([1]; 0.1 mg/kg i.v. bolus + 20 μg/kg/min i.v. infusion): 5/6
- % Clot [1, 5]: 0%
- Incidence of Occlusion [1, 5]: 0/6
- proteolytic inactivation by thrombin upon prolonged incubation (α-thrombin [2]): sensitive to proteolytic degradation with re-emergence of thrombin activity
- prolongation of activated partial thromboplastin time (APTT) [3]: prolonged the APTT in a dose dependent manner
- Ki (α-thrombin [4]; chromogenic substrate Pefachrome t-PA, HBSA pH 7.5, slow-binding (kon/koff) or Dixon analysis): 0.437 nM
- kinetics / mechanism of thrombin inhibition (α-thrombin [4]; in words): rapid, reversible kinetics of inhibition
